What was measured:
sGC enzyme = target: T1, sGC enzyme (Homo sapiens, UniProt Q02153); assay: cGMP GloSensor cell-based assay, 384-well format; settings: HEK293 cells expressing GloSensor 40F cGMP; 10 μM DETA-NONOate; 55 min incubation; normalized to high control Compound Y (30 μM); read-out: Glo-sGC Absolute EC50
T1 construct: incorporated into these cells detect cGMP formed by the compounds stimulating the sGC enzyme; host or cells: HEK293 cells stably expressing the GloSensor 40F cGMP biosensor
T1 sequence (Q02153 1-619): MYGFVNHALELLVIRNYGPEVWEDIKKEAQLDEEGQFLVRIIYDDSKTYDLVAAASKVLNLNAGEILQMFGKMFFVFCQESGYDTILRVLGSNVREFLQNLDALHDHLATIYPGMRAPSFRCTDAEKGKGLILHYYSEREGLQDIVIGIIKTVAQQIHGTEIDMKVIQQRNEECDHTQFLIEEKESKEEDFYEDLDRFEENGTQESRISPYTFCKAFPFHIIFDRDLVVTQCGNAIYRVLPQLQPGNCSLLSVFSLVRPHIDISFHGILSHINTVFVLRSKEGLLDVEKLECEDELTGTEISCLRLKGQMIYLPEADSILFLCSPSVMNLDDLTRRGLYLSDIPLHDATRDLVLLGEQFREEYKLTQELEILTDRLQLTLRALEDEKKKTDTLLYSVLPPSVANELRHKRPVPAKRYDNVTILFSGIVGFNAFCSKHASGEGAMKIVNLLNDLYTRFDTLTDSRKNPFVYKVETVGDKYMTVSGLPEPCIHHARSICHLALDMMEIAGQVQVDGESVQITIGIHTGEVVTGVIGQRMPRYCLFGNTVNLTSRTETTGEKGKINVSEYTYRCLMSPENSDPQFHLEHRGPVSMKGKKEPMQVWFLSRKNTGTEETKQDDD
T1 sequence (Q02108 1-690 partner): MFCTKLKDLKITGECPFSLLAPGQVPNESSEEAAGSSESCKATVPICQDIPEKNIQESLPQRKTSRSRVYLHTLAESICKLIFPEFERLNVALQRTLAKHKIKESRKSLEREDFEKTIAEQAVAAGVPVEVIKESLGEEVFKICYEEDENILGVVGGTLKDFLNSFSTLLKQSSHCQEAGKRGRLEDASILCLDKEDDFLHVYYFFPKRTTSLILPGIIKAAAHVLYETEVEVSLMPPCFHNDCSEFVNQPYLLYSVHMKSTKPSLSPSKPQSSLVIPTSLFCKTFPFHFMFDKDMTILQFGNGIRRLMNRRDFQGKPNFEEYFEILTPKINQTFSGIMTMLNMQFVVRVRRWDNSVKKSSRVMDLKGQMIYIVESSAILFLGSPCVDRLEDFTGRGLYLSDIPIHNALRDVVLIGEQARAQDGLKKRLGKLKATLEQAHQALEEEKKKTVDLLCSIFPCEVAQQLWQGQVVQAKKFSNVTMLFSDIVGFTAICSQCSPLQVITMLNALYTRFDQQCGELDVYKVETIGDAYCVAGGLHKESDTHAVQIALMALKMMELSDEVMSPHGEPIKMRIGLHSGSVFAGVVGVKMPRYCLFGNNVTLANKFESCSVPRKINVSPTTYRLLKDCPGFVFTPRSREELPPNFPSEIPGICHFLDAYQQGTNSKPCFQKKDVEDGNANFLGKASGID
Description: Human embryonic kidney cells (HEK293) cells expressing GloSensor™ 40F cGMP (Part No: CS182801, Promega) were used to evaluate the activity of test compounds. The luminescent biosensors (engineered luciferase) that were incorporated into these cells detect cGMP formed by the compounds stimulating the sGC enzyme and emit luminescence.
cGMP GoSensor cells were maintained in Dulbecco's Modification of Eagle's Medium (DMEM) supplemented with fetal bovine serum (FBS, 10% final) and hygromycine (200 ug/ml). The day before assay, cells were plated in DMEM with 10% FBS in a 50 μL volume at a density of 1.5×10^4 cells/well in a poly-D-lysine coated 384-well flat white-bottom plate (Corning Cat No 35661). Cells were incubated overnight at 37° C. in a humidified chamber with 5% CO2. The next day, medium was removed and cells were replaced with 40 ul/well of GoSensor™, 2 mM (Promega Cat No E1291). Cells were treated for 90 minutes at 25° C. to allow the substrate to equilibrate in the cells. Test compounds and Diethylenetriamine NONOate (DETA-NONOate) was diluted to 3 mM (20×) in serum-free CO2 independent medium and serially diluted at 4× dilutions to create 5× dose curve from which 10 ul was added to the wells (x μM concentration for test compound solution and 10 μM concentration for DETA-NONOate solution; wherein x is one of the following final concentrations).
For the kinetics studies, luminescence was measured right away for 0.2 sec per well with Envision (Perkin Elmer). For endpoint SAR screening, data were collected after 55 min incubation at room temperature.
Data were normalized to a high control using the following equation: 100*(Sample-Low Control)/(High Control-Low Control), where the low control is the average of sixteen DMSO (1%) control datapoints, and the high control is the average of sixteen Compound Y (30 μM) datapoints, wherein Compound Y is depicted below. Data were fit using a 4-parameter fit (log(agonist) vs. response—variable slope) using GraphPad Prism Software v.5. n=2 for all compounds. The Absolute EC50 was interpolated from the curve fit and is defined as the concentration at which a given compound elicits 50% of the high control response after data normalization as indicated above. Compounds failing to elicit a minimum response of 50% are reported as >30 μM or ND (not determined). For compounds run in duplicate or n higher than 2, the result herein given is the geometric mean of the several results obtained.

Sprague-Dawley Rats = assay: Blood pressure change in Sprague-Dawley rats
Description: Male rats (250-350 g body weight, supplied by Harlan Laboratories) were anesthetized with ketamine/xylazine and a heparinized saline fluid filled catheter implanted into the right femoral artery. The catheter was exteriorized between the scapula, capped, and the animal allowed to recover for at least 7 days post surgery prior to any compound testing. Prior to testing animals were maintained on normal diet, with free access to drinking water, under a 12 hour light-dark cycle.
On the day of experimentation, under inhaled isoflurane anesthesia, the catheter was uncapped and connected to a tether (Instech Labs) and pressure transducer (Harvard Apparatus). Blood pressure and heart rate were subsequently captured and analyzed with a dedicated data capture system (PowerLab, ADInstruments). Data sampling rates were set at 1 cycle per second. Once connected, each rat was allowed to recover from anesthesia and baseline blood pressure and heart rate levels were established in these conscious, freely-moving animals. Once baseline was established either vehicle (0.5% methylcellulose or 100% PEG400) or test article was administered orally (PO, 10 mg/kg) and the effects on blood pressure and heart rate monitored for up to 24 hours.

| SMILES | EC50 (sGC enzyme) [nM] | decrease of MAP (mean arterial pressure) below baseline (Sprague-Dawley Rats; conscious rat, Compound I-15 (prodrug salt of I-2) dosed orally in water at 10 mg/kg, 160 minutes post-dose) | dosed Compound I-15 converted to Compound I-2 (Sprague-Dawley Rats; rat, dosed orally in water at 10 mg/kg, one hour post-dose) [%] |
| --- | --- | --- | --- |
| OC(CNc1nc(-c2cn3ccnc3c(Cc3ccccc3F)n2)ncc1Cl)C(F)(F)F (racemic) [Compound I-8] | 100 to 1000 | – | – |
| COc1cnc(-c2cn3ncnc3c(Cc3ccccc3F)n2)nc1NCC(O)C(F)(F)F (racemic) [Compound I-11] | 1000 to 30000 | – | – |
| OC(CNc1nc(-c2cn3ccnc3c(Cc3ccccc3F)n2)ncc1F)(C(F)(F)F)C(F)(F)F [Compound I-2, 1,1,1,3,3,3-hexafluoro-2-(((5-fluoro-2-(8-(2-fluorobenzyl)imidazo[1,2-a]pyrazin-6-yl)pyrimidin-4-yl)amino)methyl)propan-2-ol] | ≤ 100 | about 10 mmHg | – |
| NC(=O)[C@](O)(CNc1nc(-c2cn3ccnc3c(Cc3ccccc3F)n2)ncc1F)C(F)(F)F [Compound I-3] | ≤ 100 | – | – |
| NC(=O)[C@](O)(CNc1nc(-c2cn3ccnc3c(Cc3cc(F)ccc3F)n2)ncc1F)C(F)(F)F [Compound I-5] | ≤ 100 | – | – |
| OC(CNc1nc(-c2cn3ncnc3c(Cc3ccccc3F)n2)ncc1F)(C(F)(F)F)C(F)(F)F [Compound I-6] | 100 to 1000 | – | – |
| CC(C)(O)CNc1nc(-c2cn3c(Cl)cnc3c(Cc3ccccc3F)n2)ncc1F [Compound I-7] | 100 to 1000 | – | – |
| OCCNc1ccnc(-c2cn3ccnc3c(Cc3ccccc3F)n2)n1 [Compound I-9] | 100 to 1000 | – | – |
| Cc1c(F)cc(Cc2nc(-c3ncc(Cl)c(NCC(O)(C(F)(F)F)C(F)(F)F)n3)cn3ccnc23)cc1F [Compound I-10] | 1000 to 30000 | – | – |
| N#Cc1cnc(-c2cn3ncnc3c(Cc3ccccc3F)n2)nc1NCC(O)(C(F)(F)F)C(F)(F)F [Compound I-12] | 100 to 1000 | – | – |
| O=P([O-])([O-])OC(CNc1nc(-c2cn3ccnc3c(Cc3ccccc3F)n2)ncc1F)(C(F)(F)F)C(F)(F)F.[Na+].[Na+] [Compound I-15] | 1000 to 30000 | – | 97.5 |
| NC(=O)[C@](O)(CNc1nc(-c2cn3ncnc3c(Cc3ccccc3F)n2)ncc1F)C(F)(F)F [Compound I-16] | 100 to 1000 | – | – |
